# How the values were obtained:
# Type in all cases: functional
# [1] = tested on: Leishmania mexicana; test: Resistance factor, ratio of EC50 for 5FU resistant Leishmania mexicana to EC50 for wild type Leishmania mexicana
# [2] = tested on: Trypanosoma brucei; test: Resistance factor, ratio of EC50 for 5FU resistant Trypanosoma brucei to EC50 for wild type Trypanosoma brucei
# [3] = tested on: Trypanosoma brucei; test: Resistance factor, ratio of EC50 for multi-drug resistant Trypanosoma brucei B48 to EC50 for wild type Trypanosoma brucei
# [4] = tested on: Trypanosoma brucei; test: Resistance factor, ratio of EC50 for PYR6-5 deficient bloodstream form of 5-FU hypersensitive Trypanosoma brucei to EC50 for wild type Trypanosoma brucei
# [5] = tested on: Trypanosoma brucei; test: Antiprotozoal activity against PYR6-5 deficient bloodstream form of 5-FU hypersensitive Trypanosoma brucei after 16 hrs by Alamar Blue assay
# [6] = tested on: Leishmania mexicana; test: Antileishmanial activity against wild type Leishmania mexicana after 16 hrs by Alamar Blue assay
# [7] = tested on: Leishmania mexicana; test: Antileishmanial activity against 5FU resistant Leishmania mexicana after 16 hrs by Alamar Blue assay
# [8] = tested on: Trypanosoma brucei; test: Antiprotozoal activity against bloodstream form of multi-drug resistant Trypanosoma brucei B48 after 16 hrs by Alamar Blue assay; conditions: B48, 16 h
# [9] = tested on: Trypanosoma brucei; test: Antiprotozoal activity against bloodstream form of 5FU resistant Trypanosoma brucei after 16 hrs by Alamar Blue assay
# [10] = tested on: Trypanosoma brucei; test: Antiprotozoal activity against bloodstream form of wild type Trypanosoma brucei after 16 hrs by Alamar Blue assay
SMILES,Ratio EC50 [1],Ratio EC50 [2],Ratio EC50 [3],Ratio EC50 [4],EC50 [5] [µM],EC50 [6] [µM],EC50 [7] [µM],EC50 [8] [µM],EC50 [9] [µM],EC50 [10] [µM]
O=c1[nH]cc(F)c(=O)[nH]1 [FLUOROURACIL],322,59.17,1.1,0.034,2.3,7.7,2470,74.6,3900,66
O=c1[nH]c(=O)n([C@H]2C=C[C@@H](O)C2)cc1Br,1,0.87,1,0.96,35.7,97.4,97.3,36.7,32.4,37.3
Cc1cc(=O)[nH]c(=O)n1[C@H]1C=C[C@@H](OC(=O)c2ccccc2)C1,1.01,0.85,1,0.91,34.3,94.1,94.9,38.1,32,37.6
O=C(O[C@@H]1C=C[C@H](n2ccc(=O)[nH]c2=O)C1)c1cc(Cl)cc(Cl)c1,1.1,0.8,1,0.95,31.6,81.5,89.4,34.8,26.7,33.2
O=c1[nH]c(=O)n([C@H]2C=C[C@@H](O)C2)cc1I,1,0.87,1,0.95,33.5,95.2,95.6,36.2,30.8,35.3
Cc1ccc(Nc2cn([C@H]3C=C[C@@H](O)C3)c(=O)[nH]c2=O)cc1,1.02,0.54,1,0.78,24.7,94.6,96.7,31,17.1,31.7
Cc1cc(C)cc(Cn2c(=O)ccn([C@H]3C=C[C@@H](OC(=O)c4ccccc4)C3)c2=O)c1,0.94,0.82,1,1.05,15.9,41.3,38.6,15.7,12.4,15.2
O=c1[nH]c(=O)n([C@H]2C=C[C@@H](O)C2)cc1Nc1ccccc1,1.01,0.49,1.1,0.76,21.4,94.1,95.3,30,13.8,28.1
Cc1cc(=O)n(C(=O)c2ccccc2)c(=O)n1[C@H]1C=C[C@@H](OC(=O)c2ccccc2)C1,0.86,0.84,1,0.98,32.3,26.1,22.6,34,27.7,33.1
O=C(O[C@@H]1C=C[C@H](n2cc(Br)c(=O)[nH]c2=O)C1)c1ccccc1,1.02,0.59,0.8,0.85,25.3,90.4,91.9,23.9,17.7,29.8
O=C(O[C@@H]1C=C[C@H](n2ccc(=O)[nH]c2=O)C1)c1ccccc1,1.01,0.84,1,0.93,35.6,94.8,95.7,38.1,32.3,38.3
Cc1cc(C)cc(Cn2c(=O)cc(C)n([C@H]3C=C[C@@H](OC(=O)c4ccccc4)C3)c2=O)c1,1.11,0.95,0.9,1.03,15.6,25.6,28.5,14,14.3,15.1
Cc1cc(=O)[nH]c(=O)n1[C@H]1C=C[C@@H](O)C1,1.04,0.82,1.1,0.92,32.2,97.7,102,38.7,28.8,35.1
O=C(O[C@@H]1C=C[C@H](n2ccc(=O)n(C(=O)c3cc(Cl)cc(Cl)c3)c2=O)C1)c1cc(Cl)cc(Cl)c1,1.03,0.79,1.1,0.93,29.5,89.1,91.4,33.9,25,31.8
O=C(O[C@@H]1C=C[C@H](n2ccc(=O)n(Cc3ccccc3)c2=O)C1)c1ccccc1,1.34,0.72,0.9,0.95,27.7,34.5,46.3,25.5,21,29.1
N#Cc1cccc(C(=O)O[C@@H]2C=C[C@H](n3ccc(=O)n(Cc4ccccc4)c3=O)C2)c1,1.16,0.76,0.9,0.94,26.4,45.5,52.6,25,21.4,27.9
N#Cc1cccc(C(=O)O[C@@H]2C=C[C@H](n3ccc(=O)[nH]c3=O)C2)c1,1.02,0.83,1,0.92,34.9,94.7,96.3,36.4,31.3,37.8
CCCCCCCCCCCCC#Cc1cn([C@H]2C=C[C@@H](O)C2)c(=O)n([C@H]2C=C[C@@H](O)C2)c1=O,0.97,0.94,1.1,1.15,9.2,11.8,11.4,9,7.5,8
N=C(N)c1ccc(OCCCCCOc2ccc(C(=N)N)cc2)cc1 [PENTAMIDINE],0.86,1.06,164,0.89,0.0051,1.9,1.63,0.938,0.0061,0.0057
O=c1ccn([C@H]2C=C[C@@H](O)C2)c(=O)[nH]1,1.01,0.85,1,0.92,34.6,97,97.9,37.9,31.9,37.6
COc1ccc(Cn2c(=O)cc(C)n([C@H]3C=C[C@@H](OC(=O)c4ccccc4)C3)c2=O)cc1,1.29,0.66,0.9,0.93,28.3,33.8,43.6,27.2,20.3,30.5
Cc1cc(C)cc(C(=O)O[C@@H]2C=C[C@H](n3ccc(=O)n(C(=O)c4cc(C)cc(C)c4)c3=O)C2)c1,0.61,0.85,0.9,1.03,24.4,38.9,23.6,21.9,20.2,23.8
Cc1cc(C)cc(C(=O)O[C@@H]2C=C[C@H](n3ccc(=O)n(Cc4ccccc4)c3=O)C2)c1,0.79,1.01,1,1.29,11.1,31.8,25.1,8.7,8.7,8.6
